# From patent publication US10488416B2, “Targeting breast cancer therapy based on stromal subtypes and CD146 composition” (The Regents of the University of Colorado, a Body Corporate, priority 2014, dated 2019)
# B1: HBEGF: HBEGF added to CD146pos CAF conditioned media in the invasion assay (protein, UniProt Q99075 63-148, looked up)
# Heparin-binding EGF-like …: DLQEADLDLLRVTLSSKPQALATPNKEEHGKRKKKGKGLGKKRDPCLRKYKDFCIHGECKYVKELRAPSCICHPGYHGERCHGLSL
# System: MCF7 cells
# Experiment: MCF7 invasion scratch wound assay through Matrigel in CAF conditioned media
# Assay type: cell-based, human
# Conditions: for effect on CD146neg CAF induced invasion: MCF7 in CD146neg CAF conditioned media
molecule,measurement,setting,value
COc1cc2ncnc(Nc3ccc(F)c(Cl)c3)c2cc1OCCCN1CCOCC1 [gefitinib],effect on CD146neg CAF induced invasion,,successfully blocked
same,effect on CD146neg CAF induced invasion,listed as gefitibib,inhibited
B1,effect on invasion,MCF7 in CD146pos CAF conditioned media,stimulated
